Experimental data from the supplement of paper PMC9763283.

Experiments:
Assay in all cases: area under growth-rate inhibition curve (AUC GRI) (dimensionless (GR-based AUC)); higher = less growth inhibition
Settings in all cases: exposure time: 72 h; concentrations: 0.1, 1, 10 uM
BT474-LTR = system: BT474-LTR
Summary of the method: (§1)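 Six breast cancer cell line models (two triple-negative lines, plus parental and lapatinib + trastuzumab-resistant HER2+ lines) were plated at optimised log-phase densities and exposed to compound at 0.1, 1 or 10 µM for 72 h. Cells were fixed in 4% paraformaldehyde, and nuclei were stained with Hoechst 33342 or DAPI, imaged and counted. Area under the growth-rate inhibition curve came from 2 biological replicates, with growth corrected using Day 0 plates, untreated Day 3 plates and DMSO controls.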

SKBR3-P = system: SKBR3-P
Summary of the method: as §1

BT474-P = system: BT474-P
Summary of the method: as §1

SKBR3-LTR = system: SKBR3-LTR
Summary of the method: as §1

MDA-MB-231 = system: MDA-MB-231
Summary of the method: as §1

MDA-MB-468 = system: MDA-MB-468
Summary of the method: as §1

In the case of `C=CCN1CC[C@]23c4c5ccc(O)c4O[C@H]2C(=O)CC[C@@]3(O)[C@H]1C5.[Cl-].[H+]` [Naloxone HCl], the “area under growth-rate inhibition curve” value (BT474-LTR) is reported as 1.08, the “area under growth-rate inhibition curve” value (SKBR3-P) is reported as 1.03 and the “area under growth-rate inhibition curve” value (BT474-P) is reported as 1.05. For the same compound, the “area under growth-rate inhibition curve” value (SKBR3-LTR) was 1.05, the “area under growth-rate inhibition curve” value (MDA-MB-231) was 1.04 and the “area under growth-rate inhibition curve” value (MDA-MB-468) was 1.02.
For `CCCN1C[C@H](CSC)C[C@@H]2c3cccc4[nH]cc(c34)C[C@H]21.CS(=O)(=O)O` [Pergolide mesylate], the “area under growth-rate inhibition curve” value (BT474-LTR) was 1.06, the “area under growth-rate inhibition curve” value (SKBR3-P) was 0.978 and the “area under growth-rate inhibition curve” value (BT474-P) was 1.02. The “area under growth-rate inhibition curve” value (SKBR3-LTR) was 1.02, the “area under growth-rate inhibition curve” value (MDA-MB-231) was 1.02 and the “area under growth-rate inhibition curve” value (MDA-MB-468) was 1.02.
In the case of `CN(C)C(=O)N[C@H]1CC[C@H](CCN2CCN(c3cccc(Cl)c3Cl)CC2)CC1` [Cariprazine], the “area under growth-rate inhibition curve” value (BT474-LTR) is reported as 1.04, the “area under growth-rate inhibition curve” value (SKBR3-P) is reported as 1.01 and the “area under growth-rate inhibition curve” value (BT474-P) is reported as 1.02. For the same compound, the “area under growth-rate inhibition curve” value (SKBR3-LTR) was 1.05, the “area under growth-rate inhibition curve” value (MDA-MB-231) was 1.02 and the “area under growth-rate inhibition curve” value (MDA-MB-468) was 1.02.
With `CC1CCN(CCC2CCCN2S(=O)(=O)c2cccc(O)c2)CC1.Cl` (stereo not drawn) the “area under growth-rate inhibition curve” value (BT474-LTR) was 1.06, the “area under growth-rate inhibition curve” value (SKBR3-P) was 1 and the “area under growth-rate inhibition curve” value (BT474-P) was 1.04. For the same compound, the “area under growth-rate inhibition curve” value (SKBR3-LTR) was 1.05, the “area under growth-rate inhibition curve” value (MDA-MB-231) was 1.02 and the “area under growth-rate inhibition curve” value (MDA-MB-468) was 1.02.
`CC(C)N(CCC(c1ccccc1)c1cc(CO)ccc1O)C(C)C` (stereo not drawn) was tested, and the “area under growth-rate inhibition curve” value (BT474-LTR) was 1.06, the “area under growth-rate inhibition curve” value (SKBR3-P) was 0.957 and the “area under growth-rate inhibition curve” value (BT474-P) was 1.04. For the same compound, the “area under growth-rate inhibition curve” value (SKBR3-LTR) was 1.03, the “area under growth-rate inhibition curve” value (MDA-MB-231) was 1.03 and the “area under growth-rate inhibition curve” value (MDA-MB-468) was 1.04.
`c1nc2nc(Nc3ccc(N4CCOCC4)cc3)nc(NC3CCCCC3)c2[nH]1` [Reversine] was tested, and the “area under growth-rate inhibition curve” value (BT474-LTR) was 0.65, the “area under growth-rate inhibition curve” value (SKBR3-P) was 0.662 and the “area under growth-rate inhibition curve” value (BT474-P) was 0.648. The “area under growth-rate inhibition curve” value (SKBR3-LTR) was 0.677, the “area under growth-rate inhibition curve” value (MDA-MB-231) was 0.689 and the “area under growth-rate inhibition curve” value (MDA-MB-468) was 0.643.
`CC[C@H](c1ccc(O)cc1)[C@@H](CC)c1ccc(O)cc1` [Hexestrol] was tested, and the “area under growth-rate inhibition curve” value (BT474-LTR) was 1.06, the “area under growth-rate inhibition curve” value (SKBR3-P) was 0.989 and the “area under growth-rate inhibition curve” value (BT474-P) was 1.05. For the same compound, the “area under growth-rate inhibition curve” value (SKBR3-LTR) was 0.993, the “area under growth-rate inhibition curve” value (MDA-MB-231) was 1.02 and the “area under growth-rate inhibition curve” value (MDA-MB-468) was 0.973.
For `COC(c1ccccc1)(c1ccccc1)C(Oc1nc(C)cc(C)n1)C(=O)O` (stereo not drawn) [Ambrisentan], the “area under growth-rate inhibition curve” value (BT474-LTR) was 1.05, the “area under growth-rate inhibition curve” value (SKBR3-P) was 1.03 and the “area under growth-rate inhibition curve” value (BT474-P) was 1.01. The “area under growth-rate inhibition curve” value (SKBR3-LTR) was 1.06, the “area under growth-rate inhibition curve” value (MDA-MB-231) was 1.05 and the “area under growth-rate inhibition curve” value (MDA-MB-468) was 1.04.
In the case of `CC[N+](CC)(CC)CCOc1cccc(OCC[N+](CC)(CC)CC)c1OCC[N+](CC)(CC)CC.[I-].[I-].[I-]` [Gallamine Triethiodide], the “area under growth-rate inhibition curve” value (BT474-LTR) is reported as 1.08, the “area under growth-rate inhibition curve” value (SKBR3-P) is reported as 1 and the “area under growth-rate inhibition curve” value (BT474-P) is reported as 1.02. For the same compound, the “area under growth-rate inhibition curve” value (SKBR3-LTR) was 1.03, the “area under growth-rate inhibition curve” value (MDA-MB-231) was 1.03 and the “area under growth-rate inhibition curve” value (MDA-MB-468) was 1.01.
With `C[C@]12N[C@H](Cc3ccccc31)c1ccccc12` [MK-801 (Dizocilpine)] the “area under growth-rate inhibition curve” value (BT474-LTR) was 1.09, the “area under growth-rate inhibition curve” value (SKBR3-P) was 0.998 and the “area under growth-rate inhibition curve” value (BT474-P) was 1.03. The “area under growth-rate inhibition curve” value (SKBR3-LTR) was 1.06, the “area under growth-rate inhibition curve” value (MDA-MB-231) was 1.03 and the “area under growth-rate inhibition curve” value (MDA-MB-468) was 1.05.
For `[Cl-].[H+].c1ccc(CN(CC2=NCCN2)c2ccccc2)cc1` [Antazoline hydrochloride], the “area under growth-rate inhibition curve” value (BT474-LTR) was 1.05, the “area under growth-rate inhibition curve” value (SKBR3-P) was 1.03 and the “area under growth-rate inhibition curve” value (BT474-P) was 1.01. The “area under growth-rate inhibition curve” value (SKBR3-LTR) was 1.05, the “area under growth-rate inhibition curve” value (MDA-MB-231) was 1.03 and the “area under growth-rate inhibition curve” value (MDA-MB-468) was 1.04.
`CC(=O)[C@H]1CC[C@H]2[C@@H]3CC=C4C[C@@H](O)CC[C@]4(C)[C@H]3CC[C@]12C` [Pregnenolone] was tested, and the “area under growth-rate inhibition curve” value (BT474-LTR) was 1.09, the “area under growth-rate inhibition curve” value (SKBR3-P) was 0.999 and the “area under growth-rate inhibition curve” value (BT474-P) was 1.02. For the same compound, the “area under growth-rate inhibition curve” value (SKBR3-LTR) was 1.05, the “area under growth-rate inhibition curve” value (MDA-MB-231) was 1.03 and the “area under growth-rate inhibition curve” value (MDA-MB-468) was 1.02.
For `N#Cc1ccccc1-c1cc(-c2ccccn2)cn(-c2ccccc2)c1=O` [Perampanel], the “area under growth-rate inhibition curve” value (BT474-LTR) was 1.05, the “area under growth-rate inhibition curve” value (SKBR3-P) was 1.03 and the “area under growth-rate inhibition curve” value (BT474-P) was 1.01. For the same compound, the “area under growth-rate inhibition curve” value (SKBR3-LTR) was 1.05, the “area under growth-rate inhibition curve” value (MDA-MB-231) was 1.03 and the “area under growth-rate inhibition curve” value (MDA-MB-468) was 1.02.
